Assay results taken from ChEMBL document CHEMBL4130375, “Design, synthesis and biological evaluation of 4-amidobenzimidazole acridine derivatives as dual PARP and Topo inhibitors for cancer therapy” (Eur J Med Chem, 2017).
The source made the active and inactive calls. The calls are words filed in the database; no cut-off is given here.

Tests used:
MCF7 [1] = test: Potency index, ratio of olaparib IC50 to compound IC50 for human MCF7 cells; type: functional
HCC1937 [2] = test: Antiproliferative activity against human HCC1937 cells harboring BRCA1 mutant after 72 hrs by MTT assay; type: functional, cell-based; conditions: HCC1937, 72 h
HCT-116 [3] = test: Antiproliferative activity against human HCT116 cells expressing topoisomerase-1 after 72 hrs by MTT assay; type: functional, cell-based; conditions: HCT-116, 72 h
HCC1937 [4] = test: Potency index, ratio of m-AMSA IC50 to compound IC50 for human HCC1937 cells harboring BRCA1 mutant; type: functional
HCT-116 [5] = test: Potency index, ratio of m-AMSA IC50 to compound IC50 for human HCT116 cells expressing topoisomerase-1; type: functional
[6] = biological target: DNA topoisomerase 2-alpha (Homo sapiens) (UniProt P11388); test: Inhibition of human topoisomerase-2 at 100 uM using supercoiled pBR322 DNA as substrate after 10 to 15 mins by ethidium bromide staining based electrophoresis method
MCF7 [7] = test: Induction of DNA double strand breaks in human MCF7 cells assessed as increase in 53BP1 level after 24 hrs by Western blot analysis; type: functional, cell-based
MCF7 [8] = test: Induction of apoptosis in human MCF7 cells assessed as live cells at 1 uM after 48 hrs by Annexin V-FITC/propidium iodide staining based flow cytometry (reference value: 99.9%); type: functional
MCF7 [9] = test: Induction of apoptosis in human MCF7 cells assessed as early apoptotic cells at 1 uM after 48 hrs by Annexin V-FITC/propidium iodide staining based flow cytometry (reference value: 0.108%); type: functional
MCF7 [10] = test: Induction of apoptosis in human MCF7 cells assessed as late apoptotic cells at 1 uM after 48 hrs by Annexin V-FITC/propidium iodide staining based flow cytometry (reference value: 0%); type: functional
MCF7 [11] = test: Induction of apoptosis in human MCF7 cells assessed as necrotic cells at 1 uM after 48 hrs by Annexin V-FITC/propidium iodide staining based flow cytometry (reference value: 0%); type: functional
MCF7 [12] = test: Induction of apoptosis in human MCF7 cells assessed as live cells at 10 uM after 48 hrs by Annexin V-FITC/propidium iodide staining based flow cytometry (reference value: 99.9%); type: functional
MCF7 [13] = test: Induction of apoptosis in human MCF7 cells assessed as early apoptotic cells at 10 uM after 48 hrs by Annexin V-FITC/propidium iodide staining based flow cytometry (reference value: 0.108%); type: functional
MCF7 [14] = test: Induction of apoptosis in human MCF7 cells assessed as necrotic cells at 10 uM after 48 hrs by Annexin V-FITC/propidium iodide staining based flow cytometry (reference value: 0%); type: functional
MCF7 [15] = test: Upregulation of cleaved caspase-3 protein expression in human MCF7 cells after 24 hrs by Western blot method; type: functional, cell-based
MCF7 [16] = test: Upregulation of cleaved caspase-8 protein expression in human MCF7 cells after 24 hrs by Western blot method; type: functional, cell-based
MCF7 [17] = test: Cell cycle arrest in human MCF7 cells assessed as accumulation at G0/G1 phase at 1 uM after 24 hrs by propidium iodide staining based flow cytometry (reference value: 17.67 +/- 1.25%); type: functional
MCF7 [18] = test: Cell cycle arrest in human MCF7 cells assessed as accumulation at S phase at 1 uM after 24 hrs by propidium iodide staining based flow cytometry (reference value: 59.72 +/- 2.98%); type: functional
MCF7 [19] = test: Cell cycle arrest in human MCF7 cells assessed as accumulation at G0/G1 phase at 5 uM after 24 hrs by propidium iodide staining based flow cytometry (reference value: 17.67 +/- 1.25%); type: functional
MCF7 [20] = test: Cell cycle arrest in human MCF7 cells assessed as accumulation at G2/M phase at 5 uM after 24 hrs by propidium iodide staining based flow cytometry (reference value: 22.61 +/- 1.55%); type: functional
MCF7 [21] = test: Cell cycle arrest in human MCF7 cells assessed as accumulation at G0/G1 phase at 10 uM after 24 hrs by propidium iodide staining based flow cytometry (reference value: 17.67 +/- 1.25%); type: functional
MCF7 [22] = test: Cell cycle arrest in human MCF7 cells assessed as accumulation at S phase at 10 uM after 24 hrs by propidium iodide staining based flow cytometry (reference value: 59.72 +/- 2.98%); type: functional
MCF7 [23] = test: Cell cycle arrest in human MCF7 cells assessed as accumulation at G2/M phase at 10 uM after 24 hrs by propidium iodide staining based flow cytometry (reference value: 22.61 +/- 1.55%); type: functional
MCF7 [24] = test: Cell cycle arrest in human MCF7 cells after 24 hrs by propidium iodide staining based flow cytometry; type: functional
MCF7 [25] = test: Upregulation of p18 protein expression in human MCF7 cells after 24 hrs by Western blot method; type: functional, cell-based
MCF7 [26] = test: Upregulation of p21 protein expression in human MCF7 cells after 24 hrs by Western blot method; type: functional, cell-based
MCF7 [27] = test: Upregulation of p27 protein expression in human MCF7 cells after 24 hrs by Western blot method; type: functional, cell-based
MCF7 [28] = test: Downregulation of CDK4 protein expression in human MCF7 cells up to 10 uM after 24 hrs by Western blot method; type: functional, cell-based
MCF7 [29] = test: Downregulation of CyclinA protein expression in human MCF7 cells up to 10 uM after 24 hrs by Western blot method; type: functional, cell-based
MCF7 [30] = test: Downregulation of CyclinD protein expression in human MCF7 cells up to 10 uM after 24 hrs by Western blot method; type: functional, cell-based
MCF7 [31] = test: Downregulation of CyclinE protein expression in human MCF7 cells up to 10 uM after 24 hrs by Western blot method; type: functional, cell-based
[32] = Half life in human liver microsomes at 1.11 uM preincubated for 5 mins followed by NADPH addition by LC-MS/MS analysis; type: ADME, microsome
[33] = Intrinsic clearance in human liver microsomes at 1.11 uM preincubated for 5 mins followed by NADPH addition by LC-MS/MS analysis; type: ADME, microsome; conditions: read-out: CLH
[34] = Half life in mouse liver microsomes at 1.11 uM preincubated for 5 mins followed by NADPH addition by LC-MS/MS analysis; type: ADME, microsome
[35] = Intrinsic clearance in mouse liver microsomes at 1.11 uM preincubated for 5 mins followed by NADPH addition by LC-MS/MS analysis; type: ADME, microsome; conditions: read-out: CLH
[36] = Half life in rat liver microsomes at 1.11 uM preincubated for 5 mins followed by NADPH addition by LC-MS/MS analysis; type: ADME, microsome
[37] = Intrinsic clearance in rat liver microsomes at 1.11 uM preincubated for 5 mins followed by NADPH addition by LC-MS/MS analysis; type: ADME, microsome; conditions: read-out: CLH
MCF7 [38] = test: cells; conditions: Homo sapiens, MCF7, 72 h
Cytochrome P450 2C9 = Cytochrome P450 2C9 (Homo sapiens, UniProt P11712); test: Inhibition of CYP2C9 in human liver microsomes preincubated for 10 mins followed by NADPH/substrate addition measured after 20 mins by LC-MS/MS analysis
Cytochrome P450 3A4 = Cytochrome P450 3A4 (Homo sapiens, UniProt P08684); test: Inhibition of CYP3A4 in human liver microsomes preincubated for 10 mins followed by NADPH/substrate addition measured after 20 mins by LC-MS/MS analysis
Chain of Cytochrome P450 3A4 (P08684 whole entry): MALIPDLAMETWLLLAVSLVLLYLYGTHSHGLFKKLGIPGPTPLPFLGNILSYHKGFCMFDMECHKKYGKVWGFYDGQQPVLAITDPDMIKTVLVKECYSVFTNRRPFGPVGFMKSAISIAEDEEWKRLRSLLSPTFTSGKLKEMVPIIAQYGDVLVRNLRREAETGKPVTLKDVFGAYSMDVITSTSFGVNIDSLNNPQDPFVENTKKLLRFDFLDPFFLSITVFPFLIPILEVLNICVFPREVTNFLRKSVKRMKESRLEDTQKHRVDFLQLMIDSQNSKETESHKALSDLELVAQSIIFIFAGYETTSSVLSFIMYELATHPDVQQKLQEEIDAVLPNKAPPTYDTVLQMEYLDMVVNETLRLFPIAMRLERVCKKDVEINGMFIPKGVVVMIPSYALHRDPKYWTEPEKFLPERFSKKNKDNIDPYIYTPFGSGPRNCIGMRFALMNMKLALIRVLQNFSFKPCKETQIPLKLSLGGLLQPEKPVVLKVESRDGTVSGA

Chain of Cytochrome P450 2C9 (P11712 whole entry): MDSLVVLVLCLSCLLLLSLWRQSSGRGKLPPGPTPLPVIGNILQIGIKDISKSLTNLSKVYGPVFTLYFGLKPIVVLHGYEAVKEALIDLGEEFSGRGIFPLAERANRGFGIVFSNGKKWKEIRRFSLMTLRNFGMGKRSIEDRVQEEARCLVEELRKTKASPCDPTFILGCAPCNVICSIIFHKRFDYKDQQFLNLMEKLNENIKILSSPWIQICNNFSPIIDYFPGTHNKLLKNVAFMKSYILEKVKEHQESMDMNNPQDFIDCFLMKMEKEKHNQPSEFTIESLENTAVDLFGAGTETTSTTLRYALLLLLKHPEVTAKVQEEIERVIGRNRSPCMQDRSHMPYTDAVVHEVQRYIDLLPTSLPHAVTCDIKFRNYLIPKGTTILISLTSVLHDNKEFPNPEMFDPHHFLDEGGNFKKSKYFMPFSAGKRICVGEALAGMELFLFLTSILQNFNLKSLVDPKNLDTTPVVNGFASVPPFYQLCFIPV
Chain of DNA topoisomerase 2-alpha (Homo sapiens) (P11388 whole entry): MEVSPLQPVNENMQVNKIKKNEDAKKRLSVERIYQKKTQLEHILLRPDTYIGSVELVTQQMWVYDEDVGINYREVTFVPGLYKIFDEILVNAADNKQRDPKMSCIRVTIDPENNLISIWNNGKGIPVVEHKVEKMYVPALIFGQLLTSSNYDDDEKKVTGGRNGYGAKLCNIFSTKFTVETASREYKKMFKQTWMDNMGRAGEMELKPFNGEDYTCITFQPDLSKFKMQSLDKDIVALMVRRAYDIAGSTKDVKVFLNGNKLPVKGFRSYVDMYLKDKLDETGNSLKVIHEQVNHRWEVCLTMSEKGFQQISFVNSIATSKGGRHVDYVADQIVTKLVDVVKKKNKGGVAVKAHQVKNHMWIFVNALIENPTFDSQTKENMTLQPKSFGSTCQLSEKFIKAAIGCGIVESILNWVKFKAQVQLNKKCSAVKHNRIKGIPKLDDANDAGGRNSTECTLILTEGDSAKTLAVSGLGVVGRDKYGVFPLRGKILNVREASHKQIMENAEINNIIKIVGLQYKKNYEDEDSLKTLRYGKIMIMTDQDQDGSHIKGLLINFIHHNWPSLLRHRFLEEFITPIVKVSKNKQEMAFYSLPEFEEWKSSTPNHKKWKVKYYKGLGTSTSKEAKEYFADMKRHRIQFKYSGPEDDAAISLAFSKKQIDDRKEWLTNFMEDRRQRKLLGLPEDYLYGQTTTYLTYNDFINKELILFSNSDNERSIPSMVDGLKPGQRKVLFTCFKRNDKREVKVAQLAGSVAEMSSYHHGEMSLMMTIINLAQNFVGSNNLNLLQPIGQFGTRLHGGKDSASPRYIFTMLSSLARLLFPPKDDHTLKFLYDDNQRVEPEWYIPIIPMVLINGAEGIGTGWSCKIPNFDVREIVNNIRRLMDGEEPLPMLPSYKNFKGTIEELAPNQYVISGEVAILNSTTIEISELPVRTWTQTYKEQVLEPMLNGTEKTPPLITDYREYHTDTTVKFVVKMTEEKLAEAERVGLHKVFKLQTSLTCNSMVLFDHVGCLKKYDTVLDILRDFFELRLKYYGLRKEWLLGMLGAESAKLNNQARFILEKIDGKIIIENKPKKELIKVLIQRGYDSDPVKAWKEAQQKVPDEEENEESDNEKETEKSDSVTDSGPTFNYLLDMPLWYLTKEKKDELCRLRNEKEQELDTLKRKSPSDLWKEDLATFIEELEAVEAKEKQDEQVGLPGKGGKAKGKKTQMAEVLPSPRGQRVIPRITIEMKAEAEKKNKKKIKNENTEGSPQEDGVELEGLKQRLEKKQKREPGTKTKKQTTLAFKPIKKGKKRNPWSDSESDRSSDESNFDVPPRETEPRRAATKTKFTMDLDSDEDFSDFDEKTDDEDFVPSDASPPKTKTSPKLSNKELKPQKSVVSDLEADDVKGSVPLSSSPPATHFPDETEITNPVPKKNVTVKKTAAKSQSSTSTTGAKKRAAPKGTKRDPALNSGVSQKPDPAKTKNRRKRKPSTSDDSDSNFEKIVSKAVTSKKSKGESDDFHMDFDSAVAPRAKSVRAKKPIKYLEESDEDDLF

IC50 (HCC1937 [2]): 0.83 µM | IC50 (HCT-116 [3]): 1.43 µM | inhibition [6]: Active | half-life at 1.11 µM [32]: 27.8 min | microsomal CLint at 1.11 µM [33]: 35.6 µL/min/mg | half-life at 1.11 µM [34]: 86.6 min | microsomal CLint at 1.11 µM [35]: 11.4 µL/min/mg | half-life at 1.11 µM [36]: 34.8 min | microsomal CLint at 1.11 µM [37]: 28.4 µL/min/mg | IC50 (MCF7 [38]): 2.14 µM | IC50 (Cytochrome P450 2C9): 2.2 µM | IC50 (Cytochrome P450 3A4): 6.8 µM
Compound: Cc1cccc2c(Nc3cccc(-c4nc5c(C(N)=O)cccc5[nH]4)c3)c3ccccc3nc12
Ratio IC50 (MCF7 [1]): 17 | Ratio IC50 (HCC1937 [4]): 9.5 | Ratio IC50 (HCT-116 [5]): 2.7 | Activity (MCF7 [7]): Dose-dependent effect | Activity (MCF7 [8]): 42.9% | Activity (MCF7 [9]): 34.4% | Activity (MCF7 [10]): 22.2% | Activity (MCF7 [11]): 0.531% | Activity (MCF7 [12]): 8.18% | Activity (MCF7 [13]): 9.58% | Activity (MCF7 [14]): 0.327% | Activity (MCF7 [15]): Dose-dependent effect | Activity (MCF7 [16]): Dose-dependent effect | Activity (MCF7 [17]): 19.96% | Activity (MCF7 [18]): 58.27% | Activity (MCF7 [19]): 43.62% | Activity (MCF7 [20]): 14.08% | Activity (MCF7 [21]): 58.27% | Activity (MCF7 [22]): 30.87% | Activity (MCF7 [23]): 10.83% | Activity (MCF7 [24]): Dose-dependent effect | Activity (MCF7 [25]): Dose-dependent effect | Activity (MCF7 [26]): Dose-dependent effect | Activity (MCF7 [27]): Dose-dependent effect | Activity (MCF7 [28]): Active | Activity (MCF7 [29]): Active | Activity (MCF7 [30]): Active | Activity (MCF7 [31]): Active
